In this assay the target is T1, MIF (Homo sapiens, UniProt P14174).
T1 sequence (P14174 2-115 limits assumed): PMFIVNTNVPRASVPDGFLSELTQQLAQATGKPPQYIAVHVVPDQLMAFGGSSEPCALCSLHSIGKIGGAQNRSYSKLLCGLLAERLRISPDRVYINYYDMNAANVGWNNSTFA
The assay is described as follows: MIF tautomerase assay using pHPP as substrate. It is filed as biochemical. The settings on record: inhibition of the MIF enzyme in vitro; mean of multiple test results; read-out: Tautomerase Inhibition pIC50 (converted). As to the method: Tautomerase Assay Using pHPP as Substrate
This assay measured MIF's tautomerase activity in a cell-free system and was based on the determination of initial rates of the MIF-catalyzed conversion of the ketonic into the enolic tautomer of pHPP. This was achieved by spectrophotometric quantification of the complex between borate and the product of the reaction (enolic pHPP). The substrate was prepared by conversion of the enolic pHPP into its ketonic form. To achieve this, 0.5 M pHPP in methanol was diluted 10-fold with 50 mM sodium acetate buffer at pH 6.0, and then the suspension was shaken for 24 h at room temperature in darkness, and finally stored at 4° C. for not more than 1 week, with 5 min sonication being recommended before use.
Assays were performed in small-volume clear-bottom black 96 or 384-well polystyrene plates (Greiner Bio-One). First, 2 μL of the enzyme solution containing 6 nM of MIF in DPBS, 0.025% w/v BSA, and 300 μM CHAPS was dispensed onto sample and negative control wells using Multidrop Combi with metallic tip cassettes (Thermo Fisher Scientific) previously treated with Sigmacote. Then, 2 μL of the same buffer without MIF was dispensed onto positive control wells. The reaction was started by addition of the following to all wells: 2 μL of substrate solution containing 3 mM ketonic pHPP in 200 mM boric acid, 25 mM sodium phosphate, 0.025% w/v BSA, and 300 μM CHAPS at pH 6.0. In order to remove bubbles, the plate was centrifuged in an Allegra 25R centrifuge (Beckman Coulter, Inc., Brea, Calif.) at 1000 rpm for 2 min at room temperature. Then, the plate was read in an EnVision. Final concentrations of enzyme and substrate were 3 nM and 1.5 mM, respectively. Initial rates were calculated for each well as the slope of the absorbance progress curve.
All exemplified compounds (Examples 1-230) were tested in the MIF tautomerase assay or a similar assay described above. The data mentioned below represents a mean pIC50 value of multiple test results. It is understood that the data illustrated below may have reasonable variation depending on the specific conditions and procedures used by the person conducting the testing.
With `CCC(CO)n1cnc2c(N3CCc4ccccc43)nc(N3CCN(c4ccc(O)cc4)CC3)nc21` (centres unmarked) [Example 30, 4-(4-(9-(1-hydroxybutan-2-yl)-6-(indolin-1-yl)-9H-purin-2-yl)piperazin-1-yl)phenol], the IC50 is 1000 to 9770 nM.

As to `O=C(O)Cn1cnc2c(N3CCc4ccccc43)nc(N3CCN(c4ccc(O)cc4)CC3)nc21` [Example 31, 2-(2-(4-(4-hydroxyphenyl)piperazin-1-yl)-6-(indolin-1-yl)-9H-purin-9-yl)acetic acid], the IC50 was 100 to 977 nM.

In the case of `NC(=O)Cn1cnc2c(N3CCc4ccccc43)nc(N3CCN(c4ccc(O)cc4)CC3)nc21` [Example 32, 2-(2-(4-(4-hydroxyphenyl)piperazin-1-yl)-6-(indolin-1-yl)-9H-purin-9-yl)acetamide], the IC50 was 1000 to 9770 nM. For `CCOC(=O)c1nn(-c2nc(N3CCN(c4ccc(O)cc4)CC3)nc3c2ncn3CC(=O)O)c2ccccc12` [Example 33, 2-(6-(3-(ethoxycarbonyl)-1H-indazol-1-yl)-2-(4-(4-hydroxyphenyl)piperazin-1-yl)-9H-purin-9-yl)acetic acid], the IC50 was 10 to 97.7 nM. As for `O=C(O)Cn1cnc2c(-c3cccc4[nH]ncc34)nc(N3CCN(c4ccc(O)cc4)CC3)nc21` [Example 34, 2-(2-(4-(4-hydroxyphenyl)piperazin-1-yl)-6-(1H-indazol-4-yl)-9H-purin-9-yl)acetic acid], the figure is 1000 to 9770 nM. In the case of `O=C(O)Cn1cnc2c(-c3ccnc4[nH]ccc34)nc(N3CCN(c4ccc(O)cc4)CC3)nc21` [Example 35, 2-(2-(4-(4-hydroxyphenyl)piperazin-1-yl)-6-(1H-pyrrolo[2,3-b]pyridin-4-yl)-9H-purin-9-yl)acetic acid], the IC50 was 100 to 977 nM. Turning to `O=C(O)Cn1cnc2c(-n3nc(-c4cccnc4)c4ccccc43)nc(N3CCN(c4ccc(O)cc4)CC3)nc21` [Example 36, 2-(2-(4-(4-hydroxyphenyl)piperazin-1-yl)-6-(3-(pyridin-3-yl)-1H-indazol-1-yl)-9H-purin-9-yl)acetic acid], the IC50 was 100 to 977 nM. As for `Cc1nc(N2CCN(c3ccc(O)cc3)CC2)nc2c1ncn2-c1cccc(O)c1Cl` [Example 37, 2-chloro-3-(2-(4-(4-hydroxyphenyl)piperazin-1-yl)-6-methyl-9H-purin-9-yl)phenol], the figure is 1000 to 9770 nM. With `Cc1cncc(-n2cnc3c(C)nc(N4CCN(c5ccc(O)cc5)CC4)nc32)c1` [Example 38, 4-(4-(6-methyl-9-(5-methylpyridin-3-yl)-9H-purin-2-yl)piperazin-1-yl)phenol], the IC50 was 1000 to 9770 nM. As for `Oc1ccc(N2CCN(c3nc(N4CCc5ccccc54)c4ncn(-c5cccnc5)c4n3)CC2)cc1` [Example 39, 4-(4-(6-(indolin-1-yl)-9-(pyridin-3-yl)-9H-purin-2-yl)piperazin-1-yl)phenol], the figure is 100 to 977 nM; as for `CCOC(=O)Cn1cnc2c(-n3cnc4ccccc43)nc(N3CCN(c4ccc(O)cc4)CC3)nc21` [Example 40, ethyl 2-(6-(1H-benzo[d]imidazol-1-yl)-2-(4-(4-hydroxyphenyl)piperazin-1-yl)-9H-purin-9-yl)acetate], 1000 to 9770 nM; as for `O=C(O)Cn1cnc2c(-n3cnc4ccccc43)nc(N3CCN(c4ccc(O)cc4)CC3)nc21` [Example 41, 2-(6-(1H-benzo[d]imidazol-1-yl)-2-(4-(4-hydroxyphenyl)piperazin-1-yl)-9H-purin-9-yl)acetic acid], 10 to 97.7 nM. As for `CNC(=O)Cn1cnc2c(-n3cnc4ccccc43)nc(N3CCN(c4ccc(O)cc4)CC3)nc21` [Example 42, 2-(6-(1H-benzo[d]imidazol-1-yl)-2-(4-(4-hydroxyphenyl)piperazin-1-yl)-9H-purin-9-yl)-N-methylacetamide], the figure is 1000 to 9770 nM; as for `Cc1nc(N2CCN(c3ccc(O)cc3)CC2)nc2c1ncn2-c1ccccc1` [Example 43, 4-(4-(6-methyl-9-phenyl-9H-purin-2-yl)piperazin-1-yl)phenol], 100 to 977 nM.
